Several values for one entry are separate records, joined by “and”; a condition that tells them apart may be missing. Identical values can stand only once. Inconclusive results and toxic doses are left out. The calls were made as follows: active = survival T/C of 150% or more; inactive = T/C below 125% in these data.
Test system: BDF1 mice, B16 melanoma ip, median survival T/C
Experiment: NCI In Vivo Anticancer Drug Screen. Data for tumor model B16 Melanoma (intraperitoneal) in B6D2F1 (BDF1) mice
Conditions: endpoint: median survival time, higher = longer survival
In short: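 Compounds were tested in mice carrying transplantable tumors. Survival or tumor size was recorded, and each value is the treated-group measurement (T) divided by that of the vehicle-treated control group (C).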

Measured: T/C

CN(C)/N=N/c1nc[nH]c1C(N)=O
inactive: dose: 6.25 mg/kg/injection, schedule: Q01DX009 (ip), vehicle: saline 110 % of control | dose: 6.25 mg/kg/injection, schedule: Q01DX009 (ip), vehicle: steriod suspending solution 105 % of control | dose: 12.5 mg/kg/injection, schedule: Q01DX009 (ip), vehicle: carboxymethylcellulose (CMC) 121 % of control | dose: 12.5 mg/kg/injection, schedule: Q01DX009 (ip), vehicle: saline 115 % of control | dose: 12.5 mg/kg/injection, schedule: Q01DX009 (ip), vehicle: steriod suspending solution 107 % of control | dose: 13.0 mg/kg/injection, schedule: Q01DX009 (ip), vehicle: saline with Tween-80 114 % of control | dose: 18.75 mg/kg/injection, schedule: Q01DX009 (ip), vehicle: Klucel (hydroxypropylcellulose) (HPC) 101 % of control | dose: 18.8 mg/kg/injection, schedule: Q01DX009 (ip), vehicle: saline 105 % of control | dose: 18.8 mg/kg/injection, schedule: Q04DX005 (ip), vehicle: saline 94 % of control | dose: 25.0 mg/kg/injection, schedule: Q01DX009 (ip), vehicle: carboxymethylcellulose (CMC) 115 % of control | dose: 25.0 mg/kg/injection, schedule: Q01DX009 (ip), vehicle: distilled water + Tween-80 117 % of control | dose: 25.0 mg/kg/injection, schedule: Q01DX009 (ip), vehicle: saline with Tween-80 107 % of control | dose: 25.0 mg/kg/injection, schedule: Q01DX009 (ip), vehicle: saline 102 % of control and 110 % of control and 114 % of control | dose: 25.0 mg/kg/injection, schedule: Q01DX009 (ip), vehicle: steriod suspending solution 115 % of control | dose: 25.0 mg/kg/injection, schedule: Q01DX017 (ip), vehicle: saline 116 % of control | dose: 25.0 mg/kg/injection, schedule: Q04DX003 (ip), vehicle: saline with Tween-80 104 % of control and 105 % of control and 115 % of control | dose: 27.5 mg/kg/injection, schedule: Q01DX009 (ip), vehicle: saline 100 % of control | dose: 37.0 mg/kg/injection, schedule: Q01DX009 (ip), vehicle: saline with Tween-80 112 % of control | dose: 37.5 mg/kg/injection, schedule: Q04DX003 (ip), vehicle: saline 100 % of control | dose: 37.5 mg/kg/injection, schedule: Q04DX005 (ip), vehicle: saline 97 % of control | dose: 48.0 mg/kg/injection, schedule: Q01DX005 (ip), vehicle: Klucel (hydroxypropylcellulose) (HPC) 99 % of control | dose: 50.0 mg/kg/injection, schedule: Q01DX009 (ip), vehicle: carboxymethylcellulose (CMC) 110 % of control | dose: 50.0 mg/kg/injection, schedule: Q01DX009 (ip), vehicle: saline with Tween-80 124 % of control | dose: 50.0 mg/kg/injection, schedule: Q01DX009 (ip), vehicle: saline 105 % of control and 114 % of control and 121 % of control | dose: 50.0 mg/kg/injection, schedule: Q01DX009 (ip), vehicle: steriod suspending solution 115 % of control | dose: 50.0 mg/kg/injection, schedule: Q01DX017 (ip), vehicle: saline 114 % of control | dose: 50.0 mg/kg/injection, schedule: Q04DX003 (ip), vehicle: saline with Tween-80 115 % of control | dose: 72.0 mg/kg/injection, schedule: Q01DX005 (ip), vehicle: Klucel (hydroxypropylcellulose) (HPC) 101 % of control | dose: 75.0 mg/kg/injection, schedule: Q01DX001 (ip), vehicle: saline 114 % of control | dose: 75.0 mg/kg/injection, schedule: Q04DX003 (ip), vehicle: saline 107 % of control | dose: 75.0 mg/kg/injection, schedule: Q04DX005 (ip), vehicle: saline 107 % of control | dose: 100.0 mg/kg/injection, schedule: Q01DX009 (ip), vehicle: carboxymethylcellulose (CMC) 105 % of control | dose: 100.0 mg/kg/injection, schedule: Q01DX009 (ip), vehicle: distilled water + Tween-80 124 % of control | dose: 100.0 mg/kg/injection, schedule: Q01DX009 (ip), vehicle: saline with Tween-80 123 % of control | dose: 100.0 mg/kg/injection, schedule: Q01DX009 (ip), vehicle: saline 110 % of control (2×) and 119 % of control | dose: 100.0 mg/kg/injection, schedule: Q01DX009 (ip), vehicle: steriod suspending solution 115 % of control | dose: 100.0 mg/kg/injection, schedule: Q01DX017 (ip), vehicle: saline 123 % of control | dose: 108.0 mg/kg/injection, schedule: Q01DX005 (ip), vehicle: Klucel (hydroxypropylcellulose) (HPC) 98 % of control | dose: 130.0 mg/kg/injection, schedule: Q01DX009 (ip), vehicle: DMSO 105 % of control | dose: 148.0 mg/kg/injection, schedule: Q04DX003 (ip), vehicle: saline with Tween-80 110 % of control | dose: 150.0 mg/kg/injection, schedule: Q01DX001 (ip), vehicle: saline 112 % of control | dose: 150.0 mg/kg/injection, schedule: Q04DX003 (ip), vehicle: saline 112 % of control | dose: 160.0 mg/kg/injection, schedule: Q01DX005 (ip), vehicle: Klucel (hydroxypropylcellulose) (HPC) 101 % of control | dose: 166.7 mg/kg/injection, schedule: Q01DX009 (ip), vehicle: saline with Tween-80 77 % of control | dose: 200.0 mg/kg/injection, schedule: Q01DX009 (ip), vehicle: distilled water + Tween-80 121 % of control | dose: 200.0 mg/kg/injection, schedule: Q01DX009 (ip), vehicle: saline 117 % of control and 118 % of control | dose: 200.0 mg/kg/injection, schedule: Q04DX003 (ip), vehicle: saline with Tween-80 109 % of control | dose: 216.0 mg/kg/injection, schedule: Q01DX009 (ip), vehicle: DMSO 109 % of control | dose: 222.0 mg/kg/injection, schedule: Q04DX003 (ip), vehicle: saline with Tween-80 115 % of control | dose: 240.0 mg/kg/injection, schedule: Q01DX005 (ip), vehicle: Klucel (hydroxypropylcellulose) (HPC) 99 % of control | dose: 277.8 mg/kg/injection, schedule: Q01DX009 (ip), vehicle: saline with Tween-80 53 % of control | dose: 300.0 mg/kg/injection, schedule: Q01DX001 (ip), vehicle: saline 102 % of control | dose: 300.0 mg/kg/injection, schedule: Q04DX003 (ip), vehicle: saline 114 % of control | dose: 300.0 mg/kg/injection, schedule: Q04DX005 (ip), vehicle: saline 115 % of control | dose: 333.0 mg/kg/injection, schedule: Q04DX003 (ip), vehicle: saline with Tween-80 124 % of control | dose: 500.0 mg/kg/injection, schedule: Q04DX003 (ip), vehicle: saline with Tween-80 114 % of control | dose: 600.0 mg/kg/injection, schedule: Q01DX001 (ip), vehicle: saline 107 % of control | dose: 600.0 mg/kg/injection, schedule: Q04DX003 (ip), vehicle: saline 95 % of control | dose: 750.0 mg/kg/injection, schedule: Q04DX003 (ip), vehicle: saline with Tween-80 124 % of control | dose: 800.0 mg/kg/injection, schedule: Q04DX003 (ip), vehicle: saline with Tween-80 45 % of control | dose: 1200.0 mg/kg/injection, schedule: Q01DX001 (ip), vehicle: saline 117 % of control
